pIC50: −log10 of the molar value.
Tested on: HCV genotype 1b replicon
Experiment: HCV replicon assay, cell ELISA with antibody to replicon-encoded NS3/4A (genotype 1b replicon)
Format: cell-based, hepatitis C virus
Conditions: Hepatitis C virus, 96 h, read-out: 1b IC50(nM), HCV genotype 1b replicon; 96 hours incubation; NS3/4A cell ELISA
How it was run: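 Replicon-harbouring cells carrying neomycin phosphotransferase were incubated 96 h with a compound dilution series without G418. Replication was quantified indirectly by a cell ELISA detecting replicon-encoded NS3/4A. IC50 values were calculated relative to DMSO control with a four-parameter fit.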

Row | SMILES | IC50
1 | CNC(=O)c1c(-c2ccc(F)cc2)oc2cc(N(C)S(C)(=O)=O)c(-c3cccc(-c4cc5c(o4)CCN(C(C)=O)C5)c3)cc12 [Example 517] | 7 nM
2 | CNC(=O)c1c(-c2ccc(F)cc2)oc2cc(N(C)S(C)(=O)=O)c(C#Cc3ccccc3)cc12 [Example 547] | 23.2 nM
3 | CNC(=O)c1c(-c2ccc(F)cc2)oc2cc(N(C)S(C)(=O)=O)c(-c3cccc(-n4nc5ccccc5c4-c4cccnc4)c3)cc12 [Example 549] | 65.9 nM
4 | CNC(=O)c1c(-c2ccc(F)cc2)oc2cc(N(C)S(C)(=O)=O)c(-c3ccc(OC)c(-c4nc5cc(F)cc(F)c5o4)c3)cc12 [Example 551] | 1.3 nM
5 | CNC(=O)c1c(-c2ccc(F)cc2)oc2cc(N(C)S(C)(=O)=O)c(-c3cc(C#N)cc(-c4cc5ccccc5[nH]4)c3)cc12 [Example 558] | 5.81 nM
6 | CNC(=O)c1c(-c2ccc(F)cc2)oc2cc(N(C)S(C)(=O)=O)c(-c3ccc4c(c3)-c3c(Cl)c5ccccc5n3C(C3CC3)O4)cc12 (stereo not drawn) [Example 588] | 50.4 nM
7 | CNC(=O)c1c(-c2ccc(F)cc2)oc2cc(N(C)S(C)(=O)=O)c(-c3ccc4c(c3)-c3[nH]c5ccccc5c3C(c3cccnc3)O4)cc12 (stereo not drawn) [Example 589] | 3.38 nM
8 | CNC(=O)c1c(-c2ccc(F)cc2)oc2cc(N(C)S(C)(=O)=O)c(-c3ccc4c(c3)-c3[nH]c5ccccc5c3C(C(C)(C)C)O4)cc12 (stereo not drawn) [Example 590] | 44.1 nM
9 | CNC(=O)c1c(-c2ccc(F)cc2)oc2cc(N(C)S(C)(=O)=O)c(-c3cccc(-c4cc5cc(F)ccc5n4CCO)c3)cc12 [Example 598] | 3.43 nM
10 | CNC(=O)c1c(-c2ccc(F)cc2)oc2cc(N(C)S(C)(=O)=O)c(-c3ccc(O)c(-c4nc5c(F)cccc5o4)c3)cc12 [Example 606, 5-(3(4-fluorobenzo[d]oxazol-2-yl)-4-hydroxyphenyl)-2(4-fluorophenyl)-N-methyl-6-(N-methylmethylsulfonamido)benzofuran-3-carboxamide] | 9.32 nM
11 | CNC(=O)c1c(-c2ccc(F)cc2)oc2cc(N(C)S(C)(=O)=O)c(-c3ccc(O)c(-c4nc5c(Cl)cccc5o4)c3)cc12 [Example 607] | 27.1 nM
12 | CNC(=O)c1c(-c2ccc(F)cc2)oc2cc(N(C)S(C)(=O)=O)c(-c3cc(-c4nc5cccc(F)c5o4)ccc3O)cc12 [Example 611] | 11.1 nM
13 | CNC(=O)c1c(-c2ccc(F)cc2)oc2cc(N(C)S(C)(=O)=O)c(-c3ccc(OCCO)c(-c4nc5c(F)cccc5o4)c3)cc12 [Example 620] | 1.66 nM
14 | CNC(=O)c1c(-c2ccc(F)cc2)oc2cc(N(C)S(C)(=O)=O)c(-c3ccc(OCC(F)F)c(-c4cc5ccccc5[nH]4)c3)cc12 [Example 622] | 647 nM
15 | CNC(=O)c1c(-c2ccc(F)cc2)oc2cc(N(C)S(C)(=O)=O)c(-c3cc(OS(C)(=O)=O)cc(-c4nc5c(F)cccc5o4)c3)cc12 [Example 627] | 1.4 nM
16 | CNC(=O)c1c(-c2ccc(F)cc2)oc2cc(N(C)S(C)(=O)=O)c(-c3ccc(OC)c(-c4nc5cc(C(N)=O)ccc5o4)c3)cc12 [Example 632] | 4.61 nM
17 | CNC(=O)c1c(-c2ccc(F)cc2)oc2cc(N(C)S(C)(=O)=O)c(-c3ccc(OC)c(-c4nc5c(C(=O)NC)cccc5o4)c3)cc12 [Example 637] | 4.03 nM
18 | CNC(=O)c1c(-c2ccc(F)cc2)oc2cc(N(C)S(C)(=O)=O)c(-c3ccc(OC)c(-c4nc5c(C(=O)Nc6ccccc6)cccc5o4)c3)cc12 [Example 638] | 29.8 nM
19 | CNC(=O)c1c(-c2ccc(F)cc2)oc2cc(N(C)S(C)(=O)=O)c(-c3cc(C(=O)O)cc(-c4nc5c(F)cccc5o4)c3)cc12 [Example 650, 3-(4-fluorobenzo[d]oxazol-2-yl)-5-(2-(4-fluorophenyl)-3-(methylcarbamoyl)-6-(N-methylmethylsulfonamido)benzofuran-5-yl)benzoic acid] | 55.7 nM
20 | CNC(=O)c1c(-c2ccc(F)cc2)oc2cc(N(C)S(C)(=O)=O)c(-c3ccc(C(=O)O)c(-c4nc5c(F)cccc5o4)c3)cc12 [Example 651] | 155 nM
21 | CNC(=O)c1cc(-c2nc3c(F)cccc3o2)cc(-c2cc3c(C(=O)NC)c(-c4ccc(F)cc4)oc3cc2N(C)S(C)(=O)=O)c1 [Example 654] | 3.65 nM
22 | CNC(=O)c1c(-c2ccc(F)cc2)oc2cc(N(C)S(C)(=O)=O)c(-c3ccc(C(=O)N(C)C)c(-c4nc5c(F)cccc5o4)c3)cc12 [Example 655] | 2.52 nM
23 | CNC(=O)c1ccc(-c2cc3c(C(=O)NC)c(-c4ccc(F)cc4)oc3cc2N(C)S(C)(=O)=O)cc1-c1nc2c(F)cccc2o1 [Example 656] | 8.41 nM
24 | CNC(=O)c1c(-c2ccc(F)cc2)oc2cc(N(C)S(C)(=O)=O)c(-c3ccc(OC)c(-c4nc5ccc(-c6cncnc6)cc5o4)c3)cc12 [Example 658, 2-(4-fluorophenyl)-5-(4-methoxy-3-(6-(pyrimidin-5-yl)benzo[d]oxazol-2-yl)phenyl)-N-methyl-6-(N-methylmethylsulfonamido) benzofuran-3-carboxamide] | 8.53 nM
25 | CNC(=O)c1c(-c2ccc(F)cc2)oc2cc(N(C)S(C)(=O)=O)c(-c3ccc(OC)c(-c4nc5ccc(-c6cccnc6)cc5o4)c3)cc12 [Example 659] | 8.62 nM

Row | SMILES | IC50
26 | CNC(=O)c1c(-c2ccc(F)cc2)oc2cc(N(C)S(C)(=O)=O)c(-c3ccc(OC)c(-c4nc5cc(-c6cncnc6)ccc5o4)c3)cc12 [Example 663] | 2.5 nM
27 | CNC(=O)c1c(-c2ccc(F)cc2)oc2cc(N(C)S(C)(=O)=O)c(-c3cccc(-c4cc5c(F)cc(F)cc5s4)c3)cc12 [Example 685] | 12 nM
28 | CNC(=O)c1c(-c2ccc(F)cc2)oc2cc(N(C)S(C)(=O)=O)c(-c3ccc(OC)c(-c4csc5ncccc45)c3)cc12 [Example 686] | 17.6 nM
29 | CNC(=O)c1c(-c2ccc(F)cc2)oc2cc(N(C)S(C)(=O)=O)c(-c3ccc(OC)c(-c4cc5ccc(F)cc5s4)c3)cc12 [Example 687] | 27.3 nM
30 | CNC(=O)c1c(-c2ccc(F)cc2)oc2cc(N(C)S(C)(=O)=O)c(-c3ccc(OC)c(-c4cc5ncccc5s4)c3)cc12 [Example 688] | 7.53 nM
31 | CNC(=O)c1c(-c2ccc(F)cc2)oc2cc(N(CC3CC(O)C3)S(C)(=O)=O)c(-c3ccc(OC)c(-c4nc5c(F)cccc5o4)c3)cc12 (stereo not drawn) [Example 701] | 6.21 nM
32 | CNC(=O)c1c(-c2ccc(F)cc2)oc2cc(N(CC3CC3)S(C)(=O)=O)c(-c3ccc(OC)c(-c4nc5c(F)cc(F)cc5o4)c3)cc12 [Example 705] | 15.6 nM
33 | CNC(=O)c1c(-c2ccc(F)cc2)oc2cc(N(CC3CC3)S(C)(=O)=O)c(-c3ccc(OC)c(-c4nc5cc(F)cc(F)c5o4)c3)cc12 [Example 706] | 16.7 nM
34 | CNC(=O)c1c(-c2ccc(F)cc2)oc2cc(N(Cc3cccnc3)S(C)(=O)=O)c(-c3ccc(OC)c(-c4nc5c(F)cccc5o4)c3)cc12 [Example 707] | 4.93 nM
35 | CNC(=O)c1c(-c2ccc(F)cc2)oc2cc(N(Cc3cccnc3)S(C)(=O)=O)c(-c3ccc(OC)c(-c4nc5c(C#N)cccc5o4)c3)cc12 [Example 708] | 3.95 nM
36 | CNC(=O)c1c(-c2ccc(F)cc2)oc2cc(N(Cc3cccnc3)S(C)(=O)=O)c(-c3ccc(OC)c(-c4nc5c(F)cc(F)cc5o4)c3)cc12 [Example 709] | 6.05 nM
37 | CNC(=O)c1c(-c2ccc(F)cc2)oc2cc(N(CC3CCS(=O)(=O)C3)S(C)(=O)=O)c(-c3ccc(OC)c(-c4nc5c(F)cccc5o4)c3)cc12 (stereo not drawn) [Example 717] | 2.84 nM
38 | CNC(=O)c1c(-c2ccc(F)cc2)oc2cc(N(CC3CCS(=O)(=O)C3)S(C)(=O)=O)c(-c3ccc(OC)c(-c4nc5c(F)cc(F)cc5o4)c3)cc12 (stereo not drawn) [Example 718] | 3.9 nM
39 | CNC(=O)c1c(-c2ccc(F)cc2)oc2cc(N(CC3CCS(=O)(=O)C3)S(C)(=O)=O)c(-c3cccc(-c4nc5ncccc5o4)c3)cc12 (stereo not drawn) [Example 719] | 3.14 nM
40 | CNC(=O)c1c(-c2ccc(F)cc2)oc2cc(N(C3COC3)S(C)(=O)=O)c(-c3ccc(OC)c(-c4nc5c(F)cccc5o4)c3)cc12 [Example 720] | 41.6 nM
41 | CNC(=O)c1c(-c2ccc(F)cc2)oc2cc(N(C3COC3)S(C)(=O)=O)c(-c3ccc(OC)c(-c4nc5c(F)cc(F)cc5o4)c3)cc12 [Example 721] | 4.94 nM
42 | CNC(=O)c1c(-c2ccc(F)cc2)oc2cc(N(C3COC3)S(C)(=O)=O)c(-c3ccc(OC)c(-c4nc5c(C#N)cccc5o4)c3)cc12 [Example 722] | 3.03 nM
43 | CNC(=O)c1c(-c2ccc(F)cc2)oc2cc(N(CC3(C)COC3)S(C)(=O)=O)c(-c3cccc(-c4nc5ncccc5o4)c3)cc12 [Example 723] | 2.31 nM
44 | CNC(=O)c1c(-c2ccc(F)cc2)oc2cc(N(CC3(C)COC3)S(C)(=O)=O)c(-c3ccc(OC)c(-c4nc5c(F)cccc5o4)c3)cc12 [Example 724] | 4.47 nM
45 | CNC(=O)c1c(-c2ccc(F)cc2)oc2cc(N(CC3(C)COC3)S(C)(=O)=O)c(-c3ccc(OC)c(-c4nc5c(F)cc(F)cc5o4)c3)cc12 [Example 725] | 10.5 nM
46 | CNC(=O)c1c(-c2ccc(F)cc2)oc2cc(N(C3CCOC3)S(C)(=O)=O)c(-c3ccc(OC)c(-c4nc5c(F)cccc5o4)c3)cc12 (stereo not drawn) [Example 726] | 5.54 nM
47 | CNC(=O)c1c(-c2ccc(F)cc2)oc2cc(N(CC3CCOC3)S(C)(=O)=O)c(-c3ccc(OC)c(-c4nc5c(F)cc(F)cc5o4)c3)cc12 (stereo not drawn) [Example 729] | 3.3 nM
48 | CNC(=O)c1c(-c2ccc(F)cc2)oc2cc(N(CCC(C)(C)C#N)S(C)(=O)=O)c(-c3ccc(OC)c(-c4nc5c(F)cccc5o4)c3)cc12 [Example 733] | 7.78 nM
49 | CNC(=O)c1c(-c2ccc(F)cc2)oc2cc(N(CCC(C)(C)C#N)S(C)(=O)=O)c(-c3ccc(OC)c(-c4nc5c(F)cc(F)cc5o4)c3)cc12 [Example 735] | 10.5 nM
50 | CNC(=O)c1c(-c2ccc(F)cc2)oc2cc(N(CC3(C#N)CC3)S(C)(=O)=O)c(-c3ccc(OC)c(-c4nc5c(F)cccc5o4)c3)cc12 [Example 737] | 19 nM

Same assay, conditions: read-out: 1b IC50; HCV genotype 1b replicon; 96 hours incubation; NS3/4A cell ELISA

Row | SMILES | pIC50
51 | CNC(=O)c1c(-c2ccc(F)cc2)oc2cc(N(CCF)S(C)(=O)=O)c(-c3cccc(-c4nc5ncccc5o4)c3)cc12 [Example 581] | 9.30

— US20120328569A1, “INHIBITORS OF HEPATITIS C VIRUS NS5B POLYMERASE” (priority 2010, published 2012)
